The values below come from patent US20230203060A1 (GENFLEET THERAPEUTICS (SHANGHAI) INC., priority 2020, published 2023).

Broadly, the IC50 is the point on the concentration scale where inhibition reaches its midpoint.

The target of assay [1] is T1, KRAS G12C (Homo sapiens, UniProt P01116, G12C).
T1 construct: purchased Reactionbiology
Briefly: KRAS G12C NEA-HTRF experiment (SOS1-catalyzed displacement of GDP by GTP). The format is biochemical. In outline:
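His-tagged KRAS G12C preloaded with DY647-GDP was preincubated 15 min at 20 °C with compound, then exchanged with SOS1 (0.2 μM working solution) and GTP (200 μM working solution) for 2 h at 20 °C in the dark. HTRF 665/615 nm ratio with anti-His-Tb was normalised to T0 and no-compound controls; IC50 by four-parameter fit.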
A general note: In TR-FRET formats the signal depends on donor and acceptor labels being close together.

The test system of assay [2] is KRAS G12C mutant MIA PaCa-2 cells. The assay can be described thus: Cell proliferation inhibition experiment, 3D spheroid, CellTiter-Glo, MIA PaCa-2. The assay is classed as cell-based, human. Particulars: read-out: MIA-PaCa2 IC50. An outline of the steps:
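200 MIA PaCa-2 cells/well grown overnight as 3D spheroids, then exposed to 3.16-fold compound dilutions (0.1% DMSO final) for 5 days. Viability read by CellTiter-Glo luminescence; inhibition calculated against DMSO and medium-only controls, and IC50 fitted by four-parameter model.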
For orientation: In ATP-based viability assays light output follows the ATP content of the culture.

Where [3] appears, read: Homo sapiens, MIA PaCa-2, 120 h, 3D cell model in 384-well spheroid plate, 5 days, CellTiter-Glo.
The mark [4] stands for this setting: 3D cell model in 384-well spheroid plate, 5 days, CellTiter-Glo.

Each structure is given as a SMILES string. Read-outs that look alike come from different tables or passages of the source.

T1 sequence (P01116 1-188 isoform P01116-2 G12C): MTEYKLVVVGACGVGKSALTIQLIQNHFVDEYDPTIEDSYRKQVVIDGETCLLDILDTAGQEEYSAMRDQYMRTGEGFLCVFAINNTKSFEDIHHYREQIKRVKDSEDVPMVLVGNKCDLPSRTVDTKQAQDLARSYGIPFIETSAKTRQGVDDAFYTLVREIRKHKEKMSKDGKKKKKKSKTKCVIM

`C=CC(=O)N1CCN2C(=O)c3c(N4C[C@@H](O)CC4(C)C)nc(-c4c(O)cccc4F)c(Cl)c3OC[C@H]2C1` (single isomer, unassigned) [Z81] gave an IC50 in assay [1] of 0.006 µM.
Same read-out and setting: then `C=CC(=O)N1CCN2C(=O)c3c(N4C[C@H](O)CC4(C)C)nc(-c4c(O)cccc4F)c(Cl)c3OC[C@H]2C1` (single isomer, unassigned) [Z82], with 0.044 µM.
Regarding `C=CC(=O)N1CCN2C(=O)c3c(N4CC(=O)N(C)CC4C)nc(-c4c(O)cccc4F)c(Cl)c3OC[C@H]2C1` (single isomer, unassigned) [Z221-1], the IC50 is 0.014 µM in assay [1] and 0.0088 µM in assay [2] (setting [3]).
Consider `C=CC(=O)N1CCN2C(=O)c3c(N4CC(=O)N(C)CC4C)nc(-c4c(O)cccc4F)c(Cl)c3OC[C@H]2C1` (single isomer, unassigned) [Z221-2], for which the IC50 in assay [1] was found to be 0.139 µM.
Take `C=CC(=O)N1CCN2C(=O)c3c(N4CC(N(C)C5COC5)CC4(C)C)nc(-c4c(O)cccc4F)c(Cl)c3OC[C@H]2C1` (single isomer, unassigned) [Z331-1]: the half-maximal inhibitory concentration (IC50) in assay [1] stood at 0.005 µM; in assay [2] (setting [3]), 0.0011 µM.
Regarding `C=CC(=O)N1CCN2C(=O)c3c(N4CC(N(C)C5COC5)CC4(C)C)nc(-c4c(O)cccc4F)c(Cl)c3OC[C@H]2C1` (single isomer, unassigned) [Z331-2], the IC50 in assay [1] is 0.007 µM; in assay [2] (setting [4]), 0.0013 µM.
For `C=CC(=O)N1CCN2C(=O)c3c(N4CCN(C)C[C@@H]4C)nc(-c4c(O)cccc4Cl)c(Cl)c3OC[C@H]2C1` (single isomer, unassigned) [Z455-1], the IC50 is 0.692 µM in assay [1] and 0.0869 µM in assay [2] (setting [4]).
For the compound `C=CC(=O)N1CCN2C(=O)c3c(N4CCN(C)C[C@@H]4C)nc(-c4c(O)cccc4Cl)c(Cl)c3OC[C@H]2C1` (single isomer, unassigned) [Z455-2], the values for the IC50 in assay [1] and in assay [2] (setting [4]) were 0.0463 µM and 0.0092 µM, respectively.
For the compound `C=CC(=O)N1CCN2C(=O)c3c(N4CC(N5CCOCC5)CC4(C)C)nc(-c4ccccc4F)c(Cl)c3OC[C@H]2C1` (single isomer, unassigned) [Z468-2], the IC50 worked out at 0.0465 µM in assay [1] and 0.012 µM in assay [2] (setting [4]).
Regarding `C=CC(=O)N1CCN2C(=O)c3c(N4C[C@H](N(C)C)CC4(C)C)nc(-c4ccccc4)c(Cl)c3OC[C@H]2C1` (single isomer, unassigned) [Z655-2], the IC50 in assay [1] turned out to be 0.128 µM; in assay [2] (setting [4]), 0.0509 µM.
For the compound `C=CC(=O)N1CCN2C(=O)c3c(N4C[C@H](N(C)CCF)CC4(C)C)nc(-c4ccccc4F)c(Cl)c3OC[C@H]2C1` (single isomer, unassigned) [Z660-2], the IC50 came to 0.0505 µM in assay [1] and 0.047 µM in assay [2] (setting [4]).
For `C=CC(=O)N1CCN2C(=O)c3c(N4C[C@H](NC)CC4(C)C)nc(-c4ccccc4F)c(Cl)c3OC[C@H]2C1` (single isomer, unassigned) [Z661-2], the IC50 came out at 0.511 µM in assay [1] and 0.004 µM in assay [2] (setting [3]).
For `C=CC(=O)N1CCN2C(=O)c3c(Nc4c(C)ccnc4C(C)C)nc(-c4c(O)cccc4F)c(Cl)c3OC[C@H]2C1` [Z5, (6aR)-8-acryloyl-4-chloro-3-(2-fluoro-6-hydroxyphenyl)-1-((2-isopropyl-4-methylpyridin-3-yl)amino)-6,6a,7,8,9,10-hexahydro-12H-pyrazino[2,1-c]pyrido[3,4-f][1,4]oxazepin-12-one], the IC50 in assay [2] (setting [3]) is 0.143 µM.
For `C=CC(=O)N1CCN2C(=O)c3c(N(C)c4c(C)ccnc4C(C)C)nc(-c4c(O)cccc4F)c(Cl)c3OC[C@H]2C1` [Z6, (6aR)-8-acryloyl-4-chloro-3-(2-fluoro-6-hydroxyphenyl)-1-((2-isopropyl-4-methylpyridin-3-yl)(methyl)amino)-6,6a,7,8,9,10-hexahydro-12H-pyrazino[2,1-c]pyrido[3,4-f][1,4]oxazepin-12-one], the IC50 in assay [2] (setting [3]) was 0.017 µM.
For `C=CC(=O)N1CCN2C(=O)c3c(OC4CCN(C)CC4)nc(-c4c(O)cccc4F)c(Cl)c3OC[C@H]2C1` [Z61, (6aR)-8-acryloyl-4-chloro-3-(2-fluoro-6-hydroxyphenyl)-1-((1-methylpiperidin-4-yl)oxy)-6,6a,7,8,9,10-hexahydro-12H-pyrazino[2,1-c]pyrido[3,4-f][1,4]oxazepin-12-one], the IC50 in assay [1] came to 0.176 µM; in assay [2] (setting [3]), 0.026 µM.
As to `C=CC(=O)N1CCN2C(=O)c3c(N4CCOC5(CC5)C4)nc(-c4c(O)cccc4F)c(Cl)c3OC[C@H]2C1` [Z63, (6aR)-8-acryloyl-4-chloro-1-(4-oxa-7-azaspiro[2.5]octan-7-yl)-3-(2-fluoro-6-hydroxyphenyl)-6,6a,7,8,9,10-hexahydro-12H-pyrazino[2,1-c]pyrido[3,4-f][1,4]oxazepin-12-one], the half-maximal inhibitory concentration (IC50) in assay [2] (setting [3]) was 0.023 µM.
For `C=CC(=O)N1CCN2C(=O)c3c(N4CC[C@@H]4C)nc(-c4c(O)cccc4F)c(Cl)c3OC[C@H]2C1` [Z68, (6aR)-8-acryloyl-1-((S)-2-methylazetidin-1-yl)-4-chloro-3-(2-fluoro-6-hydroxyphenyl)-6,6a,7,8,9,10-hexahydro-12H-pyrazino[2,1-c]pyrido[3,4-f][1,4]oxazepin-12-one], the IC50 in assay [1] turned out to be 0.088 µM; in assay [2] (setting [3]) it was 0.018 µM.
Take `C=CC(=O)N1CCN2C(=O)c3c(NC(C)(C)C)nc(-c4c(O)cccc4F)c(Cl)c3OC[C@H]2C1` [Z69, (6aR)-8-acryloyl-1-(tert-butylamino)-4-chloro-3-(2-fluoro-6-hydroxyphenyl)-6,6a,7,8,9,10-hexahydro-12H-pyrazino[2,1-c]pyrido[3,4-f][1,4]oxazepin-12-one]: the IC50 in assay [1] is 0.079 µM; in assay [2] (setting [3]), 0.028 µM.
Take `C=CC(=O)N1CCN2C(=O)c3c(NC(C)C)nc(-c4c(O)cccc4F)c(Cl)c3OC[C@H]2C1` [Z75, (6aR)-8-acryloyl-4-chloro-1-(isopropylamino)-3-(2-fluoro-6-hydroxyphenyl)-6,6a,7,8,9,10-hexahydro-12H-pyrazino[2,1-c]pyrido[3,4-f][1,4]oxazepin-12-one]: the figures for the IC50 in assay [1] and in assay [2] (setting [3]) were 0.138 µM and 0.067 µM, respectively.
On to `C=CC(=O)N1CCN2C(=O)c3c(N4CCOC5CC54)nc(-c4c(O)cccc4F)c(Cl)c3OC[C@H]2C1` (stereo partly drawn) [Z76, (6aR)-8-acryloyl-4-chloro-1-(2-oxa-5-azabicyclo[4.1.0]heptan-5-yl)-3-(2-fluoro-6-hydroxyphenyl)-6,6a,7,8,9,10-hexahydro-12H-pyrazino[2,1-c]pyrido[3,4-f][1,4]oxazepin-12-one], for which the values for the half-inhibitory concentration (IC50) in assay [1] and in assay [2] (setting [3]) were 0.173 µM and 0.034 µM, respectively.
Regarding `C=CC(=O)N1CCN2C(=O)c3c(N4CC(=O)N(C)CC4C)nc(-c4c(O)cccc4F)c(Cl)c3OC[C@H]2C1` (stereo partly drawn) [Z221, (6aR)-8-acryloyl-4-chloro-1-(2,4-dimethyl-5-oxopiperazin-1-yl)-3-(2-fluoro-6-hydroxyphenyl)-6,6a,7,8,9,10-hexahydro-12H-pyrazino[2,1-c]pyrido[3,4-f][1,4]oxazepin-12-one], the IC50 is 0.036 µM in assay [1] and 0.0045 µM in assay [2] (setting [3]).
Consider `C=CC(=O)N1CCN2C(=O)c3c(N4CCN(C)[C@H](C)C4)nc(-c4c(O)cccc4F)c(Cl)c3OC[C@H]2C1` [Z235, (6aR)-8-acryloyl-4-chloro-1-((R)-3,4-dimethylpiperazin-1-yl)-3-(2-fluoro-6-hydroxyphenyl)-6,6a,7,8,9,10-hexahydro-12H-pyrazino[2,1-c]pyrido[3,4-f][1,4]oxazepin-12-one], for which the IC50 in assay [2] (setting [3]) worked out at 0.0228 µM.
On to `C=CC(=O)N1CCN2C(=O)c3c(N4CCN(CC)C[C@@H]4C)nc(-c4c(O)cccc4F)c(Cl)c3OC[C@H]2C1` [Z236], for which the IC50 was 0.113 µM in assay [1] and 0.0079 µM in assay [2] (Homo sapiens, MIA PaCa-2, 120 h).
Regarding `C=CC(=O)N1CCN2C(=O)c3c(N4CC(O)CC4(C)C)nc(-c4c(O)cccc4F)c(F)c3OC[C@H]2C1` (stereo partly drawn) [Z256, (6aR)-8-acryloyl-4-fluoro-3-(2-fluoro-6-hydroxyphenyl)-1-(4-hydroxy-2,2-dimethylpyrrolidin-1-yl)-6,6a,7,8,9,10-hexahydro-12H-pyrazino[2,1-c]pyrido[3,4-f][1,4]oxazepin-12-one], the IC50 in assay [1] turned out to be 0.064 µM; in assay [2] (setting [3]), 0.0108 µM.
Consider `C=CC(=O)N1CCN2C(=O)c3c(N4CCN(CCO)C[C@@H]4C)nc(-c4c(O)cccc4F)c(Cl)c3OC[C@H]2C1` [Z257, (6aR)-8-acryloyl-4-chloro-3-(2-fluoro-6-hydroxyphenyl)-1-((S)-4-(2-hydroxyethyl)-2-methylpiperazin-1-yl)-6,6a,7 ,8,9,10-hexahydro-12H-pyrazino[2,1-c]pyrido[3,4-f][1,4]oxazepin-12-one], for which the IC50 came to 0.093 µM in assay [1] and 0.0113 µM in assay [2] (setting [3]).
For the compound `C=CC(=O)N1CCN2C(=O)c3c(N4C[C@H](O)C[C@@H]4C)nc(-c4c(O)cccc4F)c(Cl)c3OC[C@H]2C1` [Z259, (6aR)-8-acryloyl-4-chloro-3-(2-fluoro-6-hydroxyphenyl)-1-((2S,4R)-4-hydroxy-2-methylpyrrolidin-1-yl)-6,6a,7,8,9,10-hexahydro-12H-pyrazino[2,1-c]pyrido[3,4-f][1,4]oxazepin-12-one], in assay [1], the half-inhibitory concentration (IC50) was 0.113 µM.
In the case of `C=CC(=O)N1CCN2C(=O)c3c(N4C[C@@H](O)C[C@@H]4C)nc(-c4c(O)cccc4F)c(Cl)c3OC[C@H]2C1` [Z260, (6aR)-8-acryloyl-4-chloro-3-(2-fluoro-6-hydroxyphenyl)-1-((2S,4S)-4-hydroxy-2-methylpyrrolidin-1-yl)-6,6a,7,8,9,10-hexahydro-12H-pyrazino[2,1-c]pyrido[3,4-f][1,4]oxazepin-12-one], the values for the 50% inhibitory concentration (IC50) in assay [1] and in assay [2] (setting [3]) were 0.033 µM and 0.0044 µM, respectively.
